From US20250195521A1 (Revolution Medicines, Inc., priority 2020, published 2025) come the findings set out here.

pIC50: −log10 of the molar value. Like-named read-outs stand apart in the source and are kept apart here.

One may read the pIC50 as −log10 of the IC50, conventionally taken in molar units.

One test concerns the target KRAS G13D (Homo sapiens (Human), UniProt P01116+P62937, G13D). Nature of the test: Ras-Raf disruption/FRET/MOA assay (BRAF RBD, Cyclophilin A). The format is biochemical. The settings on record: read-out: KRAS G13D FRET data IC50. As to the method:
(§1) Compound is present in plate wells as a 10-point 3-fold dilution series starting at a final concentration of 30 μM. After incubation at 25° C. for 3 hours, a mixture of Anti-His Eu—W1024 and anti-GST allophycocyanin is then added to assay sample wells at final concentrations of 10 nM and 50 nM, respectively, and the reaction incubated for an additional 1.5 hours. […] Compounds that facilitate disruption of a Ras: RAF complex are identified as those eliciting a decrease in the TR-FRET ratio relative to DMSO control wells.
(§2) Disruption of B-Raf Ras-Binding Domain (BRAF^RBD) Interaction with K-Ras by Compounds of the Invention (Also Called a FRET Assay or an MOA Assay)
(§3) Note—The following protocol describes a procedure for monitoring disruption of K-Ras G12C (GMP-PNP) binding to BRAF^RBD by a compound of the invention. This protocol may also be executed substituting other Ras proteins or nucleotides.
(§4) The purpose of this biochemical assay was to measure the ability of test compounds to facilitate ternary complex formation between a nucleotide-loaded K-Ras isoform and Cyclophilin A; the resulting ternary complex disrupts binding to a BRAF^RBD construct, inhibiting K-Ras signaling through a RAF effector. Data is reported as IC50 values.
(§5) In assay buffer containing 25 mM HEPES pH 7.3, 0.002% Tween20, 0.1% BSA, 100 mM NaCl and 5 mM MgCl2, tagless Cyclophilin A, His6-K-Ras-GMPPNP, and GST-BRAF^RBD were combined in a 384-well assay plate at final concentrations of 25 μM, 12.5 nM and 50 nM, respectively. Compound was present in plate wells as a 10-point 3-fold dilution series starting at a final concentration of 30 μM. After incubation at 25° C. for 3 hours, a mixture of Anti-His Eu—W1024 and anti-GST allophycocyanin was then added to assay sample wells at final concentrations of 10 nM and 50 nM, respectively, and the reaction incubated for an additional 1.5 hours. […] Compounds that facilitate disruption of a K-Ras: RAF complex were identified as those eliciting a decrease in the TR-FRET ratio relative to DMSO control wells.

The next test deals with NRAS G12C (Homo sapiens (Human), UniProt P01111+P62937, G12C). The test is described as above. The format is biochemical. The settings on record: read-out: NRAS G12C FRET data IC50. The procedure: as §1, §2, §3, §4, §5
NRAS G12C, sequence (P01111 whole entry G12C): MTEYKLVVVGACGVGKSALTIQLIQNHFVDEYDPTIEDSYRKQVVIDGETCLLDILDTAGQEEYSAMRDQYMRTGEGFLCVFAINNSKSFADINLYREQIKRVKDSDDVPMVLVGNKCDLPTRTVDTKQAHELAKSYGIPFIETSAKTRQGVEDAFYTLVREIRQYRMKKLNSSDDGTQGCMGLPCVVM
NRAS G12C, sequence (P62937 whole entry): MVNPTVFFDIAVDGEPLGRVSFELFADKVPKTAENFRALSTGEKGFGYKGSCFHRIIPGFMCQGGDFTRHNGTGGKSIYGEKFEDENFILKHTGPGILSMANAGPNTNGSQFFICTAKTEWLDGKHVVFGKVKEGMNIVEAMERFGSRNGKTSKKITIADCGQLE
The target in another test is KRAS G12C (Homo sapiens (Human), UniProt P01116+P62937, G12C). Described as above. The format is biochemical. Particulars: read-out: KRAS G12C FRET IC50. As to the method:
as §1, §2, §3, §4, §5

The next test has as its target KRAS G12V (Homo sapiens (Human), UniProt P01116+P62937, G12V). Described as above. Particulars: read-out: KRAS G12V FRET IC50. The format is biochemical. The procedure:
as §1, §2, §3, §4, §5

A further test addresses KRAS G12D (Homo sapiens (Human), UniProt P01116+P62937, G12D). The description is as above. The format is biochemical. Particulars: read-out: KRAS G12D FRET IC50. The procedure: as §1, §2, §3, §4, §5
The next test addresses KRAS G13C (Homo sapiens (Human), UniProt P01116+P62937, G13C). The test is described as above. The format is biochemical. The settings on record: read-out: KRAS G13C FRET IC50. As to the method: as §1, §2, §3, §4, §5
The target in the next test is KRAS WT (Homo sapiens (Human), UniProt P01116+P62937). The test is described as above. The format is biochemical. Particulars: read-out: KRAS WT FRET data IC50. As to the method: as §1, §2, §3, §4, §5
KRAS WT, sequence (P01116 other isoform, or with tags, fused parts or gaps): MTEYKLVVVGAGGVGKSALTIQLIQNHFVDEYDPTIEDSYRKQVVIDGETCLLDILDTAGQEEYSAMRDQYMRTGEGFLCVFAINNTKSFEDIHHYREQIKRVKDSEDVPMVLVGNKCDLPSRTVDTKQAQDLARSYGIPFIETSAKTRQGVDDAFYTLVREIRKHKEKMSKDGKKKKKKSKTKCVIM
KRAS WT, sequence (P62937 whole entry): as the sequence (P62937 whole entry) above
The next test has as its target KRAS G12S (Homo sapiens (Human), UniProt P01116+P62937, G12S). The description is as above. The format is biochemical. Particulars: read-out: KRAS G12S FRET IC50. As to the method: as §1, §2, §3, §4, §5
The test system of test [1] is Capan-1 cells (K-Ras G12V). Nature of the test: CellTiter-Glo cell viability, Capan-1. The settings on record: K-Ras G12V, 5-day treatment, read-out: Capan-1 Cell Viability IC50. The format is cell-based, human. The procedure, abridged: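 Cells seeded, compound dispensed straight into wells, 5-day exposure. Plates brought to room temperature ~30 min, CellTiter-Glo luminescence measured. Normalized to DMSO (%), 4-parameter logistic fit.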
On the technique in general: Cellular ATP, detected with luciferase, serves as a proxy for viable cell number.

KRAS G12D, sequence (P01116 other isoform, or with tags, fused parts or gaps G12D): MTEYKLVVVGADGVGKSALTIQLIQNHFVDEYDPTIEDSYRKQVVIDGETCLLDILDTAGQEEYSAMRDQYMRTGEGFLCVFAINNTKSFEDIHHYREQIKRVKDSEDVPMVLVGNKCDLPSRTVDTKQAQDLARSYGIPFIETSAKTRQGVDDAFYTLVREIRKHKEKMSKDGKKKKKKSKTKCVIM
KRAS G12D, sequence (P62937 whole entry): as the sequence (P62937 whole entry) above
KRAS G12S, sequence (P01116 other isoform, or with tags, fused parts or gaps G12S): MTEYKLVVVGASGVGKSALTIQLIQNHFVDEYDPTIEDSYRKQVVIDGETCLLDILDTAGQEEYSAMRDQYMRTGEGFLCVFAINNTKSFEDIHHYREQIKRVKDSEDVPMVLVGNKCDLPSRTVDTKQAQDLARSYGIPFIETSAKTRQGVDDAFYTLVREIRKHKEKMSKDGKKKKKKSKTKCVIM
KRAS G12S, sequence (P62937 whole entry): as the sequence (P62937 whole entry) above
KRAS G12C, sequence (P01116-2 other isoform, or with tags, fused parts or gaps G12C): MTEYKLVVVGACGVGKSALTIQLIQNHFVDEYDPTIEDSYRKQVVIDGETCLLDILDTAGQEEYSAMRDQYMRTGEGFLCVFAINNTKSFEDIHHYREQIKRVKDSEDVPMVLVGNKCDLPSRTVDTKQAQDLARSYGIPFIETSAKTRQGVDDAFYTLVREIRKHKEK
KRAS G12C, sequence (P62937 whole entry): as the sequence (P62937 whole entry) above
KRAS G13C, sequence (P01116 other isoform, or with tags, fused parts or gaps G13C): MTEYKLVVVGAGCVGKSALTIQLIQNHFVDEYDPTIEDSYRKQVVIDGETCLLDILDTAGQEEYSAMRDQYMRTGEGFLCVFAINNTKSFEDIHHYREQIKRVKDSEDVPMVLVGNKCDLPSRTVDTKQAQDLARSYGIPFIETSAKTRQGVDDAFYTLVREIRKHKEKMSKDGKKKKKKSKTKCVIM
KRAS G13C, sequence (P62937 whole entry): as the sequence (P62937 whole entry) above
KRAS G13D, sequence (P01116 other isoform, or with tags, fused parts or gaps G13D): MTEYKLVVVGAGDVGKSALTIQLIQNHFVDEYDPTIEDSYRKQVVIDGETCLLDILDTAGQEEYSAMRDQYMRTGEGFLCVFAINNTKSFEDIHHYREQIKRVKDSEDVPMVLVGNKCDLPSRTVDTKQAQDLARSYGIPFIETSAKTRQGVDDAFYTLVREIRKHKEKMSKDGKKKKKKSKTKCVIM
KRAS G13D, sequence (P62937 whole entry): as the sequence (P62937 whole entry) above
KRAS G12V, sequence (P01116 other isoform, or with tags, fused parts or gaps G12V): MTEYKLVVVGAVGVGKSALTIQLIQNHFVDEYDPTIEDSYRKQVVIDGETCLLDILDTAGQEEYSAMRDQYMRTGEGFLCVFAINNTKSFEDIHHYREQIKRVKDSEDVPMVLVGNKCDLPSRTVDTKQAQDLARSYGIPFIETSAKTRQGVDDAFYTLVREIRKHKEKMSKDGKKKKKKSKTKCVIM
KRAS G12V, sequence (P62937 whole entry): as the sequence (P62937 whole entry) above

In the case of `CCn1c(-c2cccnc2[C@H](C)OC)c2c3cc(ccc31)-c1cc(O)cc(c1)C[C@H](NC(=O)[C@H](C(C)C)N(C)C(=O)OCc1ccccc1)C(=O)N1CCC[C@H](N1)C(=O)OCC(C)(C)C2` [Compound A185], the pIC50 on KRAS G13D is 5.00 to 6.00; at NRAS G12C, 5.00 to 6.00; on KRAS G12C, 5.00 to 6.00; on KRAS G12V it was 5.00 to 6.00; at KRAS G12D, under 5.00; at KRAS G13C, 6.00 to 7.00. For the same molecule, the pIC50 was 5.00 to 6.00 at KRAS WT; 5.00 to 6.00 on KRAS G12S; 5.00 to 6.00 in test [1] (Homo sapiens, CAPAN-1, 120 h).

As to `CCn1c(-c2cccnc2[C@H](C)OC)c2c3cc(ccc31)-c1csc(n1)C[C@H](NC(=O)[C@H](C(C)C)N(C)C(=O)N1CC(OC)C1)C(=O)N1CCC[C@H](N1)C(=O)OCC(C)(C)C2` [Compound A205], the negative logarithm of the IC50 (pIC50) on KRAS G13D was 6.00 to 7.00; at NRAS G12C, 7.00 to 8.00; on KRAS G12C it was 7.00 to 8.00; on KRAS G12V it was 6.00 to 7.00; on KRAS G12D, 6.00 to 7.00; on KRAS G13C, 6.00 to 7.00. For the same molecule, the pIC50 at KRAS WT is 6.00 to 7.00; at KRAS G12S, 6.00 to 7.00; in test [1], 7.00 to 8.00.

On to `CCn1c(-c2cccnc2[C@H](C)OC)c2c3cc(ccc31)-c1cccc(c1)C[C@H](NC(=O)[C@H](C(C)C)N(C)C(=O)[C@@H]1CCN(C3COC3)C1)C(=O)N1CCC[C@H](N1)C(=O)OCC(C)(C)C2` [Compound A206], for which the pIC50 is 5.00 to 6.00 on KRAS G13D; 5.00 to 6.00 on NRAS G12C; 5.00 to 6.00 on KRAS G12C; under 5.00 at KRAS G12V; under 5.00 at KRAS G12D; 5.00 to 6.00 at KRAS G13C. Also, the pIC50 at KRAS WT is 5.00 to 6.00; on KRAS G12S, under 5.00; in test [1] (Homo sapiens, CAPAN-1, 120 h), under 5.00.

With `CCn1c(-c2cccnc2[C@H](C)OC)c2c3cc(ccc31)-c1csc(n1)C[C@H](NC(=O)[C@H](C(C)C)N1CCC3(CCN(C)C3)C1=O)C(=O)N1CCC[C@H](N1)C(=O)OCC(C)(C)C2` (stereo partly drawn) [Compound A213], the pIC50 is 5.00 to 6.00 on KRAS G13D; 5.00 to 6.00 on NRAS G12C; 5.00 to 6.00 at KRAS G12C; under 5.00 on KRAS G12V; 5.00 to 6.00 at KRAS G12D; 5.00 to 6.00 on KRAS G13C. The pIC50 was 5.00 to 6.00 on KRAS WT; 5.00 to 6.00 at KRAS G12S; under 5.00 in test [1] (Homo sapiens, CAPAN-1, 120 h).

On to `CCn1c(-c2cccnc2[C@H](C)OC)c2c3cc(ccc31)-c1cc(O)cc(c1)C[C@H](NC(=O)[C@H](C(C)C)N(C)C(=O)[C@@H]1NC[C@@H]3C[C@@H]31)C(=O)N1CCC[C@H](N1)C(=O)OCC(C)(C)C2` [Compound A217], for which the pIC50 is 7.00 to 8.00 at KRAS G13D; 7.00 to 8.00 at NRAS G12C; 7.00 to 8.00 at KRAS G12C; 6.00 to 7.00 on KRAS G12V; 6.00 to 7.00 on KRAS G12D; 7.00 to 8.00 on KRAS G13C. Further, the pIC50 at KRAS WT was 7.00 to 8.00; on KRAS G12S it was 7.00 to 8.00; in [1] (Homo sapiens, CAPAN-1, 120 h), 6.00 to 7.00.

For the molecule `CCn1c(-c2cccnc2[C@H](C)OC)c2c3cc(ccc31)-c1cc(O)cc(c1)C[C@H](NC(=O)[C@H](C(C)C)N(C)C(=O)C1CCCC1)C(=O)N1CCC[C@H](N1)C(=O)OCC(C)(C)C2` [Compound A219], the negative logarithm of the IC50 (pIC50) on KRAS G13D is 6.00 to 7.00; on NRAS G12C it was 7.00 to 8.00; at KRAS G12C, 7.00 to 8.00; at KRAS G12V, 7.00 to 8.00; at KRAS G12D, 6.00 to 7.00; on KRAS G13C, 7.00 to 8.00. Also, the pIC50 on KRAS WT is 7.00 to 8.00; on KRAS G12S it was 7.00 to 8.00; in test [1] (Homo sapiens, CAPAN-1, 120 h), 6.00 to 7.00.

As for `CCn1c(-c2cccnc2[C@H](C)OC)c2c3cc(ccc31)-c1cc(O)cc(c1)C[C@H](NC(=O)[C@H](C(C)C)N(C)C(=O)C1CNCCO1)C(=O)N1CCC[C@H](N1)C(=O)OCC(C)(C)C2` (stereo partly drawn) [Compound A229], the pIC50 on KRAS G13D is 7.00 to 8.00; on NRAS G12C, 7.00 to 8.00; at KRAS G12C, 7.00 to 8.00; on KRAS G12V, 6.00 to 7.00; on KRAS G12D, 6.00 to 7.00; on KRAS G13C, 7.00 to 8.00. Moreover, the negative-log IC50 (pIC50) on KRAS WT was 6.00 to 7.00; at KRAS G12S, 6.00 to 7.00; in [1] (Homo sapiens, CAPAN-1, 120 h) it was 5.00 to 6.00.
